Test results from US20240246920A1, “TRIAZOLE DERIVATIVES WITH ANTIFUNGAL ACTIVITY” (King's College London, priority 2020, published 2024).
Values after ≈ are worked out from the molar mass of the structure shown. Where two headings read alike, the source gives them in different places.

Experiments:
[1] = system: C. albicans 3882; test: Candida albicans panel MIC; type: cell-based; details: Table 6, Candida albicans panel
Protocol: (§1) The minimum inhibitory concentration of test compounds were determined in a panel of Candida species (see Table 4 below), using the a serial dilution method in 96-well plates using the following protocol.
(§2) Starter cultures of fungal strains to be tested were grown in 3 mL of RPMI 2% glucose media incubated at 37° C. with shaking at 200 rpm overnight. The culture media used was 900 mL H2O; 10.4 g RPMI 1640 (with L-glutamine and a pH indicator but without bicarbonate); 34.5 g MOPS and 18 g glucose. The pH of the media was adjusted to 7.0 with 1 M sodium hydroxide.
(§3) Solutions of the compound to be tested were prepared by dissolving the compound in DMSO and subsequently into media to the desired concentrations. 200 μL of compound solution was then added to the wells of the 96-well plate using a serial dilution method row-by row of the plate to give a compound concentration gradient across the plate of from 128 μg/mL to 0.25 μg/mL. The last two rows of each plate were control rows containing the culture media alone and the media plus fungi.
(§4) The fungi starter cultures were diluted 1:10 in water in cuvettes. This was then further diluted to an optical density (OD600) of 0.01 in media. 100 μL of the fungi was added to each well giving a starting concentration of fungus of 0.5-5×10^5/mL. One species of fungus was used on each plate. The plates were then held at 37° C. for 24 hours.
(§5) A plate reader was used to measure growth in each well at OD530 nm and the MIC was determined for each test compound. The MIC is defined as the lowest concentration giving rise to inhibition of ≥50% of that of the drug-free control well containing the fungus and media.
(§6) The compounds shown in Table 6 were tested against a further panel of Candida albicans.

[2] = system: C. albicans 3990; test: Candida albicans panel MIC; type: cell-based; details: Table 6, Candida albicans panel
Protocol: as §1, §2, §3, §4, §5, §6

[3] = system: C. albicans 3363; test: Candida albicans panel MIC; type: cell-based; details: Table 6, Candida albicans panel
Protocol: as §1, §2, §3, §4, §5, §6

[4] = system: C. albicans 3880; test: Candida albicans panel MIC; type: cell-based; details: Table 6, Candida albicans panel
Protocol: as §1, §2, §3, §4, §5, §6

[5] = system: C. albicans 8112; test: Candida albicans panel MIC; type: cell-based; details: Table 6, Candida albicans panel
Protocol: as §1, §2, §3, §4, §5, §6

[6] = system: C. albicans 3645; test: Candida albicans panel MIC; type: cell-based; details: Table 6, Candida albicans panel
Protocol: as §1, §2, §3, §4, §5, §6

[7] = system: C. albicans 3881; test: Candida albicans panel MIC; type: cell-based; details: Table 6, Candida albicans panel
Protocol: as §1, §2, §3, §4, §5, §6

[8] = system: C. krusei NCPF3876; test: microbe, parasite or virus in culture; type: cell-based, Candida krusei; details: Pichia kudriavzevii
Method in brief: (§7)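 MIC taken as lowest concentration inhibiting growth ≥50% relative to drug-free control, from OD530 after 24 hours at 37° C. Fungi at 0.5-5×10^5/mL were exposed to serially diluted compound in RPMI 1640/MOPS/2% glucose medium adjusted to pH 7.0.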

[9] = system: C. glabrata NCPF8018; test: Candida panel MIC, serial dilution in 96-well plates; type: cell-based, Candida glabrata; details: Nakaseomyces glabratus
Method in brief: as §7

[10] = system: C. parapsilosis NCPF3209; test: microbe, parasite or virus in culture; type: cell-based, Candida parapsilosis; details: Lodderomyces parapsilosis
Method in brief: as §7

[11] = system: C. albicans NCPF3281; test: Candida panel MIC, serial dilution in 96-well plates; type: cell-based, Candida albicans; details: NCPF3281, read-out: MIC C. albicans NCPF3281
Method in brief: (§8)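 Broth microdilution in RPMI 1640/MOPS/2% glucose, pH 7.0, compound serially diluted from 128 to 0.25 μg/mL. Inoculum 0.5-5×10^5/mL from overnight 37 °C cultures; plates incubated 24 h at 37 °C. Growth read at OD530; MIC is lowest concentration giving ≥50% inhibition versus drug-free growth control.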

[12] = system: C. auris 8971; test: as above; type: cell-based, Candida auris
Method in brief: (§9)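 MIC is the lowest concentration inhibiting growth by ≥50% relative to the drug-free control, read at OD530 nm after 24 hours at 37° C. Fungi were seeded at 0.5-5×10^5/mL in MOPS-buffered RPMI 1640 with 2% glucose, pH 7.0; compounds came from DMSO solutions diluted in media.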

[13] = system: C. auris 8977; test: as above; type: cell-based, Candida auris
Method in brief: as §9

[14] = system: C. auris 8984; test: as above; type: cell-based, Candida auris
Method in brief: as §9

[15] = system: Candida auris TDG2211; test: microbe, parasite or virus in culture; type: cell-based; details: Candidozyma auris
Method in brief: as §9

[16] = system: Candida auris TDG2506; test: microbe, parasite or virus in culture; type: cell-based; details: Candidozyma auris
Method in brief: as §9

[17] = system: C. auris TDG1912; test: Candida panel MIC, serial dilution in 96-well plates; type: cell-based; details: Candidozyma auris, TDG1912; Table 4; 24 hours, ≥50% inhibition; read-out: MIC C. auris TDG1912
Method in brief: as §8

[18] = system: C. tropicalis NCPF8760; test: as above; type: cell-based
Method in brief: as §8

[19] = system: Candida auris TDG2512; test: as above; type: cell-based; details: Candidozyma auris, TDG2512; Table 4, extended panel; 24 hours, ≥50% inhibition; read-out: MIC Candida auris TDG2512
Method in brief: as §8

[20] = system: Candida auris TDG1102; test: as above; type: cell-based; details: Candidozyma auris, TDG1102; Table 4, extended panel; 24 hours, ≥50% inhibition; read-out: MIC Candida auris TDG1102
Method in brief: as §8

[21] = NCPF3876, Table 4, common panel, 24 hours, ≥50% inhibition, read-out: MIC C. krusei NCPF3876
[22] = NCPF8018, Table 4, common panel, 24 hours, ≥50% inhibition, read-out: MIC C. glabrata NCPF8018
[23] = NCPF3209, Table 4, common panel, 24 hours, ≥50% inhibition, read-out: MIC C. parapsilosis NCPF3209
[24] = Candida albicans, Table 4, common panel, 24 hours, ≥50% inhibition
[25] = Table 6, Candida albicans panel
[26] = Candidozyma auris, 8971, Table 4, extended panel, 24 hours, ≥50% inhibition, read-out: MIC C. auris 8971
[27] = Candidozyma auris, 8977, Table 4, extended panel, 24 hours, ≥50% inhibition, read-out: MIC C. auris 8977
[28] = Candidozyma auris, 8984, Table 4, extended panel, 24 hours, ≥50% inhibition, read-out: MIC C. auris 8984
[29] = TDG2211, Table 4, extended panel, 24 hours, ≥50% inhibition, read-out: MIC Candida auris TDG2211
[30] = TDG2506, Table 4, extended panel, 24 hours, ≥50% inhibition, read-out: MIC Candida auris TDG2506
[31] = NCPF8760, Table 4, common panel, 24 hours, ≥50% inhibition, read-out: MIC C. tropicalis NCPF8760
[32] = NCPF3876, read-out: MIC C. Krusei NCPF3876
[33] = NCPF8018, read-out: MIC C. Glabrata NCPF8018
[34] = NCPF3209, read-out: MIC C. Parapsilosis NCPF3209
[35] = NCPF8760, read-out: MIC C. Tropicalis NCPF8760

Row | SMILES | MIC [1] | MIC [2] | MIC [3] | MIC [4] | MIC [5] | MIC [6] | MIC [7] | MIC [8, 21] | MIC [9, 22] | MIC [10, 23] | MIC [11, 24] | MIC [12, 26] | MIC [13, 27] | MIC [14, 28] | MIC [15, 29] | MIC [16, 30] | MIC [17] | MIC [18, 31] | MIC [19] | MIC [20] | other results
1 | OC(CN1CCC(Nc2ccc(Cc3ccccc3)cc2)CC1)(Cn1cncn1)c1ccc(F)cc1F (stereo not drawn) [Example 11, 1-(4-((4-benzylphenyl)amino)piperidin-1-yl)-2-(2,4-difluorophenyl)-3-(1H-1,2,4-triazol-1-yl)propan-2-ol] | 0.0625 µg/mL (≈ 0.124 µM) | 0.0039 to 0.0625 µg/mL (≈ 0.00774 to 0.124 µM) | 0.0156 µg/mL (≈ 0.031 µM) | 0.0313 µg/mL (≈ 0.0622 µM) | 0.00195 µg/mL (≈ 0.00387 µM) | 0.00391 µg/mL (≈ 0.00776 µM) | 0.0313 µg/mL (≈ 0.0622 µM) | ≤ 0.125 µg/mL | ≤ 0.125 µg/mL | ≤ 0.125 µg/mL | ≤ 0.125 µg/mL | ≤ 0.125 µg/mL | ≤ 0.125 µg/mL | ≤ 0.125 µg/mL | ≤ 0.125 µg/mL | ≤ 0.125 µg/mL | 0.125 µg/mL (≈ 0.248 µM) | ≤ 0.125 µg/mL | ≤ 0.125 µg/mL | ≤ 0.125 µg/mL | MIC [11, 25]: ≤ 0.00098 µg/mL
2 | C[C@@H](c1ncncc1F)[C@](O)(Cn1cncn1)c1ccc(F)cc1F [Voriconazole, voriconazole, reference compound] | 0.25 µg/mL (≈ 0.716 µM) | 0.25 µg/mL (≈ 0.716 µM) | 1 µg/mL (≈ 2.86 µM) | 0.25 µg/mL (≈ 0.716 µM) | ≤ 0.00781 µg/mL | ≤ 0.0078 µg/mL | 0.25 µg/mL (≈ 0.716 µM) |  |  |  |  | > 32 µg/mL | 32 µg/mL (≈ 91.6 µM) | > 128 µg/mL | > 128 µg/mL | 2 µg/mL (≈ 5.73 µM) | > 32 µg/mL |  | > 128 µg/mL | > 128 µg/mL | MIC [8, 32]: 0.5 to 2 µg/mL (≈ 1.43 to 5.73 µM); MIC [9, 33]: 1 µg/mL (≈ 2.86 µM); MIC [10, 34]: ≤ 0.25 µg/mL; MIC [11, 25]: ≤ 0.007 µg/mL; MIC ([12]; Candidozyma auris, 8971, read-out: MIC C. auris 8971): > 32 µg/mL; MIC ([13]; Candidozyma auris, 8977, read-out: MIC C. auris 8977): 32 µg/mL (≈ 91.6 µM); MIC ([14]; Candidozyma auris, 8984, read-out: MIC C. auris 8984): > 128 µg/mL; MIC ([15]; TDG2211, read-out: MIC C. auris 2211): > 128 µg/mL; MIC ([16]; TDG2506, read-out: MIC C. auris 2506): 2 µg/mL (≈ 5.73 µM); MIC [18, 35]: 4 µg/mL (≈ 11.5 µM)
3 | OC(CN1CCC(Nc2ccc(OCc3ccccc3)cc2)CC1)(Cn1cncn1)c1ccc(F)cc1F (stereo not drawn) [Example 90] | 0.00391 µg/mL (≈ 0.00753 µM) | 0.0039 µg/mL (≈ 0.00751 µM) | 0.008 to 0.03 µg/mL (≈ 0.0154 to 0.0577 µM) | 0.00391 µg/mL (≈ 0.00753 µM) | 0.00391 µg/mL (≈ 0.00753 µM) | 0.00391 µg/mL (≈ 0.00753 µM) | 0.0078 to 0.0313 µg/mL (≈ 0.015 to 0.0602 µM) | 0.0313 µg/mL (≈ 0.0602 µM) | 0.0625 µg/mL (≈ 0.12 µM) | 0.00391 µg/mL (≈ 0.00753 µM) | 0.00391 µg/mL (≈ 0.00753 µM) | 0.003 µg/mL (≈ 0.00577 µM) | 0.00781 µg/mL (≈ 0.015 µM) | 0.003 µg/mL (≈ 0.00577 µM) | 0.003 µg/mL (≈ 0.00577 µM) | 0.003 µg/mL (≈ 0.00577 µM) |  | 0.0625 µg/mL (≈ 0.12 µM) | 0.00391 µg/mL (≈ 0.00753 µM) | 0.0156 µg/mL (≈ 0.0301 µM) | MIC [8, 32]: 0.0313 µg/mL (≈ 0.0602 µM); MIC [9, 33]: 0.0625 µg/mL (≈ 0.12 µM); MIC [10, 34]: 0.00391 µg/mL (≈ 0.00753 µM); MIC [11, 25]: 0.00391 µg/mL (≈ 0.00753 µM); MIC [18, 35]: 0.0625 µg/mL (≈ 0.12 µM)
4 | OC(CN1CCC(Nc2ccc(OCCN3CCCC3)cc2)CC1)(Cn1cncn1)c1ccc(F)cc1F (stereo not drawn) [Example 82] |  |  |  |  |  |  |  | 8 µg/mL (≈ 15.2 µM) | 32 µg/mL (≈ 60.8 µM) | 0.25 µg/mL (≈ 0.475 µM) | 0.25 µg/mL (≈ 0.475 µM) | 2 to 8 µg/mL (≈ 3.8 to 15.2 µM) | 4 to 16 µg/mL (≈ 7.6 to 30.4 µM) | 4 µg/mL (≈ 7.6 µM) | 0.5 to 2 µg/mL (≈ 0.949 to 3.8 µM) | 4 µg/mL (≈ 7.6 µM) | 4 to 16 µg/mL (≈ 7.6 to 30.4 µM) | > 32 µg/mL | 1 µg/mL (≈ 1.9 µM) | 16 µg/mL (≈ 30.4 µM) | 
5 | OC(CN1CCC(N2CCC(Nc3ccccc3)CC2)CC1)(Cn1cncn1)c1ccc(F)cc1F (stereo not drawn) [Example 14, 2-(2,4-difluorophenyl)-1-(4-(phenylamino)-[1,4′-bipiperidin]-1′-yl)-3-(1H-1,2,4-triazol-1-yl)propan-2-ol] |  |  |  |  |  |  |  | 4 µg/mL (≈ 8.05 µM) | 16 µg/mL (≈ 32.2 µM) | ≤ 0.125 µg/mL | ≤ 0.125 µg/mL | 0.25 µg/mL (≈ 0.503 µM) | 0.25 µg/mL (≈ 0.503 µM) | 1 µg/mL (≈ 2.01 µM) | ≤ 0.125 µg/mL | 2 µg/mL (≈ 4.03 µM) | 1 µg/mL (≈ 2.01 µM) | 32 µg/mL (≈ 64.4 µM) | 0.25 µg/mL (≈ 0.503 µM) | 1 µg/mL (≈ 2.01 µM) | 
